The source of these data is US20120164104A1, “Composition and Methods of Treating Viral Infections and Viral Induced Tumors” (Chimerix, Inc., priority 2009, published 2012).

pIC50: −log10 of the molar value.

In one series the test system is EBV. The series can be described thus: CMX001 in human patients with EBV-associated PTLD. In kind it is in vivo. The following applies: for EBV viral load: heart transplant recipient. From the text:
The first patient is a patient with a history of sickle cell anemia developed EBV-associated intracranial post-transplant lymphoproliferative disorder (PTLD). EBV was positive in the plasma (7 Dec. and 14 Dec. 2010) and brain biopsies were consistent with PTLD. In early December, the patient presented with a 3 day history of persistent headache, nausea, vomiting, and diarrhea. […] The patient was admitted to PICU. High intracranial pressure, repetitive seizures associated with apnea led to intubation and emergency request for CMX001. The use of CMX001 in this patient with EBV-associated PTLD is ongoing since […].
The second patient was a heart transplant recipient with EBV-associated PTLD. The patient acquired a primary EBV infection post-operatively. […] The clinical condition continued to destabilize with what was presumed to be EBV-associated encephalitis with EBV detected in the CSF, clinical and EEG-correlated seizure activity and decreased responsiveness and changes in mental status. At the time of request for CMX001, the patient was on mechanical ventilation, had evidence of both pneumonia and PTLD of their lungs, evidence of seizure activity with clinical criteria for encephalopathy being present. The patient received their first dose of CMX001, 20 mg (approximately 3.3 mg/kg) on 3 Mar. 2010, and their second dose on 7 Mar. […] The patient continued to show evidence of progressive neurologic injury. The parents withdrew support on the day following their second dose of CMX001.

The next series concerns RPTECs. The series can be described thus: Inspection of RPTECs by phase contrast microscopy. In kind it is cell-based, human. The note with it: 3 day exposure to CMX001 0.31 μM.
The test system of a further series is tumor cell lines. The series can be described thus: Cell proliferation assay (MTS or SRB), panel of human tumor cell lines. In kind it is cell-based. The following applies: 22 tumor cell lines, read-out: IC50 values in the tumor cell lines (range over panel). The method, then: The cell growth inhibitory activities of CMX001, Cidofovir, and a standard agent (varies depending on the tumor type of the cell lines) were evaluated in a panel of cell lines derived from multiple tumor types using a MTS or SRB based cell proliferation assay.
In vitro cell proliferation assays were performed using a 96-well plate based MTSassay (CellTiter 96° AqueousOne Solution Cell Proliferation Assay, Promega) or SRB (Sulforhodamine-B) assay (1-3). Briefly, cells were plated in 100 μl medium on day 0 in 96-well microtiter plates (Falcon #3072). […]
After incubation for 3 days at 37° C. in a humidified incubator, viable cells were measured either by MTS or SRB assay. For MTS assay, 20 μl of a 20:1 mixture of (3-(4,5-dimethylthiazol-2-yl)-5-(3-carboxymethoxyphenyl)-2-(4-sulfophenyl)-2H-tetrazolium, inner salt (MTS, 2 mg/ml) and an electron coupling reagent, phenazine methosulfate (PMS, 0.92 mg/ml in DPBS), was added to each well and incubated for 3 hours at 37° C. Absorbance was measured using a BioTek Synergy™ HT Multiple Detection microplate reader at 490 nm. For SRB assay, cells were fixed in situ with 50 μL of cold trichloroacetic acid (TCA, final concentration at 10% w/v) for 60 minutes. Cells were then washed 5 times with H2O and air-dried. […]
Raw data were acquired using a BioTek Synergy™ HT Multiple Detection microplate reader and imported into Microsoft Excel for analysis. […]

On to `CCCCCCCCCCCCCCCCOCCCOP(=O)(O)CO[C@H](CO)Cn1ccc(N)nc1=O` [CMX001], for which the EBV viral load in the series on EBV (3 Mar. 2010 (day of first dose, 20 mg)) is 267,338 copies/mL; with EBV (7 Mar. 2010 (day of second dose)) it was 47,427 copies/mL. In addition, in the series with EBV (patient on CMX001), the “EBV in the plasma” value is listed as “remains negative”. The tolerability entry in the series on EBV (patient, 4 mg/kg twice weekly) is reported as “tolerated CMX001 well”. Also, the clinical outcome in the series on EBV (patient, intracranial PTLD, 4 mg/kg twice weekly) was “clinical improvement of their signs and symptoms of disease as well as stabilization if not reduction of their intracranial mass”. Further, the “signs of impaired viability” value in the series with RPTECs is “did not reveal any signs of impaired viability”. The pIC50 in the series with tumor cell lines is 4.00 to 5.18.
